Legend:
liver [1] = test: Liver visualization by fluorescent dye in adult pig model after RF thermal ablation (SPY imaging system); assay type: in vivo; conditions: intravenous bolus, liver subjected to RF ablation
mammals = conditions: used in mammals; cited from earlier work
[2] = cited from earlier work
liver [3] = test: Rat liver visualized by laser excitation light delivered by fiber optics through a laparoscope; assay type: in vivo; conditions: male Sprague-Dawley rat

Compound	fluorescence of liver tissue (perfusion) under laser excitation (liver [1])	toxicity in mammals (mammals)	distribution ([2]; after intravenous injection, with normal vascular permeability)	metabolism ([2]; in the body)	enterohepatic recirculation ([2]; in vivo)	excretion route ([2]; in vivo)	intestinal reabsorption ([2]; in vivo)	fluorescence of liver under laparoscopic laser excitation (liver [3])
CC1(C)C(/C=C/C=C/C=C/C=C2\N(CCCCS(=O)(=O)O)c3ccc4ccccc4c3C2(C)C)=[N+](CCCCS(=O)(=O)[O-])c2ccc3ccccc3c21 [ICG, indocyanine green]	The lighter areas to the right and bottom sides of the photos indicate normal liver tissue	low evidence of toxicity	remains intravascular	not metabolized in the body	does not undergo enterohepatic recirculation	excreted exclusively by the liver	not reabsorbed from the intestine	The brightly fluorescing structure is the liver
N=C(N)c1ccc(/C=C/c2ccc(C(=N)N)cc2O)cc1 [Fluorogold]		low evidence of toxicity						
Fast Blue		low evidence of toxicity						
